Measured values published in publication PMC7730235, “Discovery of a Novel Class of Covalent Dual Inhibitors Targeting the Protein Kinases BMX and BTK” (International Journal of Molecular Sciences, 2020).

Assays:
Assay in all cases: Radiometric kinase assay (Reaction Biology HotSpot)
Assay type in all cases: biochemical
BLK = biological target: T1, BLK (Homo sapiens, UniProt P51451); details: [ATP] = 10 μM; for remaining activity at 0.2 µM: 200 nM compound, duplicate mean, read-out: Residual Activity @ 200 nM, BLK
T1 construct: purchased Reaction Biology Corporation
Experimental: (§1) If not mentioned differently, in vitro profiling of compounds was performed at Reaction Biology Corporation using the HotSpot™ assay platform.

BTK = biological target: T2, BTK (Homo sapiens, UniProt Q06187); details: [ATP] = 10 μM; for remaining activity at 0.2 µM: read-out: Residual Activity @ 200 nM, BTK
T2 construct: purchased Reaction Biology Corporation
Experimental: as §1

MKK7 = biological target: T3, MKK7 (Homo sapiens, UniProt O14733); details: 200 nM compound, duplicate mean, [ATP] = 10 μM; read-out: Residual Activity @ 200 nM, MKK7
T3 construct: purchased Reaction Biology Corporation
T3 sequence (O14733 1-419): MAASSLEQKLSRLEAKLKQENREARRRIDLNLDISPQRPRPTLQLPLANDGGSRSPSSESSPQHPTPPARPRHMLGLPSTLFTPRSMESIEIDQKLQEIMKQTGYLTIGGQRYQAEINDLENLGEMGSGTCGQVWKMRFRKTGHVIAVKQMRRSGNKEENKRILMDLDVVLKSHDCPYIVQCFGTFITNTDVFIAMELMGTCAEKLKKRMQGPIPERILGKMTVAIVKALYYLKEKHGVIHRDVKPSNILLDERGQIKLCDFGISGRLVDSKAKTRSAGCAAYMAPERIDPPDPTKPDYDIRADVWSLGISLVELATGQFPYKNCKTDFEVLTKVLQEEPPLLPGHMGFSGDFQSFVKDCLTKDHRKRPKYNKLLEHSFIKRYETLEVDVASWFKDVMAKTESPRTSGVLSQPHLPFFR
Experimental: as §1

JAK3 = biological target: T4, JAK3 (Homo sapiens, UniProt P52333); details: [ATP] = 10 μM; for remaining activity at 0.2 µM: 200 nM compound, duplicate mean, read-out: Residual Activity @ 200 nM, JAK3; for IC50: radiometric HotSpot, five-dose singlicate
T4 construct: purchased Reaction Biology Corporation
T4 sequence (P52333 1-1124): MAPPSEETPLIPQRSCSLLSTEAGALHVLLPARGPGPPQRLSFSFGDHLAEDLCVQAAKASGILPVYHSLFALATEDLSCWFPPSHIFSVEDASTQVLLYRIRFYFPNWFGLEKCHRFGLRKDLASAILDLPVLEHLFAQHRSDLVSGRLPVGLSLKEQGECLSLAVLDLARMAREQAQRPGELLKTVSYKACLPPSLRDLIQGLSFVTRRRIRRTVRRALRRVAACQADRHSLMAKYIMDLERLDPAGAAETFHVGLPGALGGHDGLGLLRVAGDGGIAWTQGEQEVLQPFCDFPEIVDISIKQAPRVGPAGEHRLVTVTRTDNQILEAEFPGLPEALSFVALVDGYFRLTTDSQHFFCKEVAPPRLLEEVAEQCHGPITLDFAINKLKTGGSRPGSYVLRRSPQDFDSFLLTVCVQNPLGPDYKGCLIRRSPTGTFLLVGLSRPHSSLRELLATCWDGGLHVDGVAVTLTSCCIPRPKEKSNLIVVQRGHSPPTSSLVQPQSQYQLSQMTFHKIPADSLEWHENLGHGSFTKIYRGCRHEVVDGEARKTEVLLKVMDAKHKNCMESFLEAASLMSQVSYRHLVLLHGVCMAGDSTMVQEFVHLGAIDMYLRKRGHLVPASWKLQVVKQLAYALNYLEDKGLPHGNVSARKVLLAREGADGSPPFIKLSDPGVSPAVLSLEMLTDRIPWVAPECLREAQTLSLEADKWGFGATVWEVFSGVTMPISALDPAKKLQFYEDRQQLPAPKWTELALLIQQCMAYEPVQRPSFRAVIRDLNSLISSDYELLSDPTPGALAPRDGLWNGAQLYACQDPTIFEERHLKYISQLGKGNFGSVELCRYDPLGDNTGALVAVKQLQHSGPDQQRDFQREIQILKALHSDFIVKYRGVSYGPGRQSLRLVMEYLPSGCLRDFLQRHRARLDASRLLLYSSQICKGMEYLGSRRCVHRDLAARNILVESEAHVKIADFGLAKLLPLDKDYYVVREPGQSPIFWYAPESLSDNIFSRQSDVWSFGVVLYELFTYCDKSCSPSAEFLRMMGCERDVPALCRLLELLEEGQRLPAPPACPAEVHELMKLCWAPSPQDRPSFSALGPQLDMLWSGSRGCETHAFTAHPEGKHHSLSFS
Experimental: as §1

ITK = biological target: T5, ITK (Homo sapiens, UniProt Q08881); details: 200 nM compound, duplicate mean, [ATP] = 10 μM; read-out: Residual Activity @ 200 nM, ITK
T5 construct: purchased Reaction Biology Corporation
T5 sequence (Q08881 1-620): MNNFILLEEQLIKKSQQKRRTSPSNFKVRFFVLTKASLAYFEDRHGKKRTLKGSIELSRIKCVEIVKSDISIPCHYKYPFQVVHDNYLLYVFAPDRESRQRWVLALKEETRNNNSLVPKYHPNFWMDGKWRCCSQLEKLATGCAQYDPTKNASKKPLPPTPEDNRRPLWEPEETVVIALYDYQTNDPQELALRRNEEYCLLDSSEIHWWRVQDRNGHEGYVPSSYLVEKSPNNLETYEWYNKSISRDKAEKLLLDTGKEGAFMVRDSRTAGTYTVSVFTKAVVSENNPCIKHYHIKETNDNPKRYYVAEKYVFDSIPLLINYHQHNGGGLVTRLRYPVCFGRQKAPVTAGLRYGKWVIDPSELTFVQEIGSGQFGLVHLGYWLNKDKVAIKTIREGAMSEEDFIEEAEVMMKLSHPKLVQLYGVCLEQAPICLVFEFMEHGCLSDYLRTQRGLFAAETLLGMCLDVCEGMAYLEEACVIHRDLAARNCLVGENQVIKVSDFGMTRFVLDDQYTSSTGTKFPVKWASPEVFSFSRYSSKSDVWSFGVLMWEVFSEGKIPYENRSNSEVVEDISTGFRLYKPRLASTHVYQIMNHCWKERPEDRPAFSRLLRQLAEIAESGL
Experimental: as §1

EGFR = biological target: T6, EGFR (Homo sapiens, UniProt P00533); details: [ATP] = 10 μM; for remaining activity at 0.2 µM: 200 nM compound, duplicate mean, read-out: Residual Activity @ 200 nM, EGFR; for IC50: radiometric HotSpot, five-dose singlicate
T6 construct: purchased Reaction Biology Corporation
Experimental: as §1

[1] = 200 nM compound, duplicate mean
[2] = radiometric HotSpot, five-dose singlicate

T1 sequence (P51451 whole entry): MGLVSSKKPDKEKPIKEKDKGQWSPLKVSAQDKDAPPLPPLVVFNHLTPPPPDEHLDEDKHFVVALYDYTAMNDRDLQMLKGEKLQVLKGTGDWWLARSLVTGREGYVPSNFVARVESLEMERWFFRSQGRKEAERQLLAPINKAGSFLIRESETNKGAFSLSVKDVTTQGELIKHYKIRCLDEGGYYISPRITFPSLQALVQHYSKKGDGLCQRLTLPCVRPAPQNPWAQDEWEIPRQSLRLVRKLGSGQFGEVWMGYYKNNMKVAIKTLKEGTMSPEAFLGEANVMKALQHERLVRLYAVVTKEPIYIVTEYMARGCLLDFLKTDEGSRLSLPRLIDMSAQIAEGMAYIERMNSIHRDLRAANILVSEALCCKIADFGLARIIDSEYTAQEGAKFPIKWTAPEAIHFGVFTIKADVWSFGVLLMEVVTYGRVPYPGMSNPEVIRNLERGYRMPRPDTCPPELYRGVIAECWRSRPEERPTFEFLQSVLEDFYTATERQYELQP
T6 sequence (P00533 25-1210): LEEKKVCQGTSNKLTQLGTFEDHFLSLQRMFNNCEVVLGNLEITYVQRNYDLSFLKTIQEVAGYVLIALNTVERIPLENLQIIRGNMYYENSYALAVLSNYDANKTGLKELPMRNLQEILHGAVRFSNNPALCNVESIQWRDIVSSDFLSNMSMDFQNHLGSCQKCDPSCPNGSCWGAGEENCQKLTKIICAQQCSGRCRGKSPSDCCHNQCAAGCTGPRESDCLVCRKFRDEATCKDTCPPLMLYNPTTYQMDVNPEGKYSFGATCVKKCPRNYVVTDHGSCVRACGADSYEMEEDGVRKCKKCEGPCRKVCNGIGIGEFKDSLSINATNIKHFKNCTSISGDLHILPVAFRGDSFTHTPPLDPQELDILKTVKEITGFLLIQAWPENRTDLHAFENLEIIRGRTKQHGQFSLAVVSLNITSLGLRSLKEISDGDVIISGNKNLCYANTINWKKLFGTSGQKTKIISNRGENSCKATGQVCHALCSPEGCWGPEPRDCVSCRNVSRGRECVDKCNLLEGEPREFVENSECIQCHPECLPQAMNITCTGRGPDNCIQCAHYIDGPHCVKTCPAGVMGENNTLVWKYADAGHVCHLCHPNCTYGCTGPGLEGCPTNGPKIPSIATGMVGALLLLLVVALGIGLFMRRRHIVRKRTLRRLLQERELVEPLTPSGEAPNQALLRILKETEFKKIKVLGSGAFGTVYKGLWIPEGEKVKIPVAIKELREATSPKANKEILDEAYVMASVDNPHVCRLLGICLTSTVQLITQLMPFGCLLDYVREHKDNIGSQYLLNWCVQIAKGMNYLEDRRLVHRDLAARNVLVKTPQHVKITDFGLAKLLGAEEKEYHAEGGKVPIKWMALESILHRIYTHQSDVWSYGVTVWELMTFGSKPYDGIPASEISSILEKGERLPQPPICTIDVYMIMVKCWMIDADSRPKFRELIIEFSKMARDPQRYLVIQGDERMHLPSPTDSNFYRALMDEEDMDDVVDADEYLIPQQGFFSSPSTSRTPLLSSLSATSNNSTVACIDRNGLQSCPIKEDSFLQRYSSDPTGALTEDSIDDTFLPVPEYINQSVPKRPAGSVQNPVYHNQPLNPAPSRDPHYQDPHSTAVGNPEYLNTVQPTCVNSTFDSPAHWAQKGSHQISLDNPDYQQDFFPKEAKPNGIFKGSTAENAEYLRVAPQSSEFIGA
T2 sequence (Q06187 whole entry): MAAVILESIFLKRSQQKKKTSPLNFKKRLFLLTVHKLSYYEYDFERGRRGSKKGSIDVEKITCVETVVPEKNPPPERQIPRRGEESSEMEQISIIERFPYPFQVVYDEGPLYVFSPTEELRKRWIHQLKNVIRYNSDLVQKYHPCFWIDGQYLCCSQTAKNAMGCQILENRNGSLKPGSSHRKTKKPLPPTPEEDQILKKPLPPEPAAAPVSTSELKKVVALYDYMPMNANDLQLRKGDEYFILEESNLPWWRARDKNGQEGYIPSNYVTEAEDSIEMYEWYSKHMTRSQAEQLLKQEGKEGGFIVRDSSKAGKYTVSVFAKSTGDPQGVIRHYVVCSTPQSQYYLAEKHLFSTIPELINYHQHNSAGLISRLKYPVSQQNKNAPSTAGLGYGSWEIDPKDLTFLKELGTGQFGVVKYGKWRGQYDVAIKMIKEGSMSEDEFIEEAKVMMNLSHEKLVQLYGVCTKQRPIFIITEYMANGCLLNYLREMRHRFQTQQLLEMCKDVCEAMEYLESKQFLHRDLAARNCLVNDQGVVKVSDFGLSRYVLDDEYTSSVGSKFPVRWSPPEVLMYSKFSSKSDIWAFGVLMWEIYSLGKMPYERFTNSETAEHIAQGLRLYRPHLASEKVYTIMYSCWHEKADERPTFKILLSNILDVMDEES

remaining activity at 0.2 µM (BLK) [%]	remaining activity at 0.2 µM (BTK; [1]) [%]	remaining activity at 0.2 µM (MKK7) [%]	remaining activity at 0.2 µM (JAK3) [%]	IC50 (JAK3) [nM]	remaining activity at 0.2 µM (ITK) [%]	remaining activity at 0.2 µM (EGFR) [%]	IC50 (EGFR) [nM]	Residual Activity @ 200 nM, BTK (BTK; [1]) [%]	IC50 (BLK; [2]) [nM]	IC50 (BTK; [2]) [nM]	SMILES
95.8	18.2	37.3	0.8	0.2	88.1	> 100	5250				C=CC(=O)Nc1cccc(-c2c[nH]c3ncccc23)c1 [Compound 9a, N-(3-(1H-pyrrolo[2,3-b]pyridin-3-yl)phenyl)acrylamide]
82.4	18.9	28.3	0.5	< 0.1	90.8	95.5	> 10000				C=CC(=O)Nc1cccc(-c2c[nH]c3ncc(C(N)=O)cc23)c1 [Compound 10a, 3-(3-acrylamidophenyl)-1H-pyrrolo[2,3-b]pyridine-5-carboxamide]
95.1	70					> 100		69.7			CCC(=O)Nc1cccc(-c2c[nH]c3ncc(NC(=O)C4CCCC4)cc23)c1 [Compound 12b, N-(3-(3-propionamidophenyl)-1H-pyrrolo[2,3-b]pyridin-5-yl)cyclopentanecarboxamide]
8.6	0.8	> 100	> 100	> 10000	94	14.9	12		30	< 1	C=CC(=O)Nc1cccc(-c2c[nH]c3ncc(NC(=O)c4cccs4)cc23)c1 [Compound 12c, N-(3-(3-acrylamidophenyl)-1H-pyrrolo[2,3-b]pyridin-5-yl)thiophene-2-carboxamide]
